From BindingDB's records for patent US20240174621 (Hoffmann-La Roche, 2024)

Columns and labels:
Experiment in all cases: Kinase Assay
[1] = biological target: Serine/threonine-protein kinase B-raf (Homo sapiens, UniProt P15056)
From the text: (§1) The assay is not in detail.

[2] = biological target: Tyrosine-protein kinase Lck (Homo sapiens, UniProt P06239)
From the text: as §1

[3] = biological target: Tyrosine-protein kinase CSK (Homo sapiens, UniProt P41240)
From the text: as §1

[4] = biological target: Serine/threonine-protein kinase B-raf [V600E] (Homo sapiens, UniProt P15056, V600E)
Sequence of Serine/threonine-protein kinase B-raf [V600E] (P15056 2-766 V600E limits assumed): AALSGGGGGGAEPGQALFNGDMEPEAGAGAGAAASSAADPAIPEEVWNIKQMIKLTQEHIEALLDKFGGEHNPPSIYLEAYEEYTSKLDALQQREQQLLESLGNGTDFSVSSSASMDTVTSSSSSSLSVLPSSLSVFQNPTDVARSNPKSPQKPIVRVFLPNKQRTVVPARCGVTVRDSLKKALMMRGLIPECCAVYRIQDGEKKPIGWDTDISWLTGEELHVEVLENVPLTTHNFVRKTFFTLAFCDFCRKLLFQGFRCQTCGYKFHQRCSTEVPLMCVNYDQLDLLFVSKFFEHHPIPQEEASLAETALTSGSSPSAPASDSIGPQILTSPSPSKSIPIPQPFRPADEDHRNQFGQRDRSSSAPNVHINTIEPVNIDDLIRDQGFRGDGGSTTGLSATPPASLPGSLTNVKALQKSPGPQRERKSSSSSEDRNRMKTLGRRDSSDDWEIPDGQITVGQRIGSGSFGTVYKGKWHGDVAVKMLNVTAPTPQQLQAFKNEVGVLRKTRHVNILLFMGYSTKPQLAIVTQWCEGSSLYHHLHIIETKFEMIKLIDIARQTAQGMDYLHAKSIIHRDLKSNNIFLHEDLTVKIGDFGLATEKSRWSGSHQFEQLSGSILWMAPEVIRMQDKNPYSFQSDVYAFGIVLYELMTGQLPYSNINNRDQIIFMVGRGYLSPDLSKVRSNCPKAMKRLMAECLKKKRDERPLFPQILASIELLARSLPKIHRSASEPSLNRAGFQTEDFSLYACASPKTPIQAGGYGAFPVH
From the text: as §1

[5] = biological target: RAF proto-oncogene serine/threonine-protein kinase (Homo sapiens, UniProt P04049)
Sequence of RAF proto-oncogene serine/threonine-protein kinase (P04049 whole entry): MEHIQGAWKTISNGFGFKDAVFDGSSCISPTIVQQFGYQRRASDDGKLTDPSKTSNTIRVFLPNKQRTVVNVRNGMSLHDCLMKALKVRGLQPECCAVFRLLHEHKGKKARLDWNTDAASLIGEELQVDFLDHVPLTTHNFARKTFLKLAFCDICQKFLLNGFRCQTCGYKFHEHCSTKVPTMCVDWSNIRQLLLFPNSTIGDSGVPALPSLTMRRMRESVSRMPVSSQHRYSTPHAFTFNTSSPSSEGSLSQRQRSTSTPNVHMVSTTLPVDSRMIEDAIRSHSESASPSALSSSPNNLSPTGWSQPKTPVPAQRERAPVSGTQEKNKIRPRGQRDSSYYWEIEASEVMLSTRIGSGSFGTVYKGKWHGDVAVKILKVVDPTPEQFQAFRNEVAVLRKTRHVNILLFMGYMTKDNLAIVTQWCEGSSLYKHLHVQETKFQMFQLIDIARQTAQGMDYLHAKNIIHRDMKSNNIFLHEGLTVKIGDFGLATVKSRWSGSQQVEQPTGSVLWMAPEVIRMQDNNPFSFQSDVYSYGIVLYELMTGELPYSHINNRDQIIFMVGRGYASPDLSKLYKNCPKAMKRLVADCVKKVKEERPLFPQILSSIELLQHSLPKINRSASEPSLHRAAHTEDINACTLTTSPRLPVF
From the text: as §1

Sequence of Tyrosine-protein kinase Lck (P06239 whole entry): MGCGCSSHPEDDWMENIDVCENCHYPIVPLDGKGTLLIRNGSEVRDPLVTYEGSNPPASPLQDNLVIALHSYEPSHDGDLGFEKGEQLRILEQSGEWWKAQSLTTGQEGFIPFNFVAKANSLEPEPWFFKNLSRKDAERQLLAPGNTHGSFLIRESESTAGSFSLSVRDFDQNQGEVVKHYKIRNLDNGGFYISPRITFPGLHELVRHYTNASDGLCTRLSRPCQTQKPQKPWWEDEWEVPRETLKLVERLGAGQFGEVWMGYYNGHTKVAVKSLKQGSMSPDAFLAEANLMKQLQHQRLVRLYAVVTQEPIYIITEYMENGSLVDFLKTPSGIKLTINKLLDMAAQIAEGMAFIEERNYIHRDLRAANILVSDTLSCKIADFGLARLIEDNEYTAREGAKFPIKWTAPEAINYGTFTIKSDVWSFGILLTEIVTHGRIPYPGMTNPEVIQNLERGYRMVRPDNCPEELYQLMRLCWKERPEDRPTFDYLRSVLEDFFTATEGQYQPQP
Sequence of Tyrosine-protein kinase CSK (P41240 whole entry): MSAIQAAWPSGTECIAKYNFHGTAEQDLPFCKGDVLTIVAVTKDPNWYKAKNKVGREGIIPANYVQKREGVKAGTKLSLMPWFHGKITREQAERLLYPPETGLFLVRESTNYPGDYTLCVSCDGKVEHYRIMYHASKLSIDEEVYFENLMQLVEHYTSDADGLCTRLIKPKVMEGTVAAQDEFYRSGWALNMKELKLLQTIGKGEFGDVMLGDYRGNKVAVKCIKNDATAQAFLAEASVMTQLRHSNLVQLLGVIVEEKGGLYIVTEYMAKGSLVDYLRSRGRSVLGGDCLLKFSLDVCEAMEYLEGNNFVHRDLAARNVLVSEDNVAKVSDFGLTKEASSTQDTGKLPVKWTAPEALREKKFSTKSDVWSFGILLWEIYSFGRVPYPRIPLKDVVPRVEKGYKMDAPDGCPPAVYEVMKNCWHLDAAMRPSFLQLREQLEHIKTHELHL
Sequence of Serine/threonine-protein kinase B-raf (P15056 whole entry): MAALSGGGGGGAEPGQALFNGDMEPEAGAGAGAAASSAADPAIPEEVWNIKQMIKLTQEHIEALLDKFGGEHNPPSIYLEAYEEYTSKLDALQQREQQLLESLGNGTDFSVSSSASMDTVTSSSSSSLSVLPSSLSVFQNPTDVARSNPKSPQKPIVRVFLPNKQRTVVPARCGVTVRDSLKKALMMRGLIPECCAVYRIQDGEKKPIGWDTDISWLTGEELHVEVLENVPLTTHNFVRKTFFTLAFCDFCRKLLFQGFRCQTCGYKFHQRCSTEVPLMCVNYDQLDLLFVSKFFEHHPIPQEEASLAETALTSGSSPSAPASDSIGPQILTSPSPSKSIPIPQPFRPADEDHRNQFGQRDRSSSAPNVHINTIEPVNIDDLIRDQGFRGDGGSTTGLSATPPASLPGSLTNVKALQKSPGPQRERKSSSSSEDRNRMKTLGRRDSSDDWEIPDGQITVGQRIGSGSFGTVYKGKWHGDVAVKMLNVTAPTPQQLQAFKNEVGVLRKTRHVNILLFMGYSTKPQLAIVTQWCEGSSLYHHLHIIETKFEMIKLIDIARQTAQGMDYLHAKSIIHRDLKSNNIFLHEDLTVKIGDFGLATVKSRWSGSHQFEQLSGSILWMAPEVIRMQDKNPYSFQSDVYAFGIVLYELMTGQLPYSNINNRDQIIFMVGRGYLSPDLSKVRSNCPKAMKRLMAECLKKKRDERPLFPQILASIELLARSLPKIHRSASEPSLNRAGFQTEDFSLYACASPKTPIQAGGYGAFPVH

Row | Structure (SMILES) | Kd [1] | Kd [2] | Kd [3] | Kd [4] | Kd [5]
1 | CN(C)S(=O)(=O)Nc1ccc(Cl)c(Oc2ccc3ncn(C)c(=O)c3c2)c1C#N [US20240174621, Example AR-30] | 174 nM | 10400 nM | 8010 nM | 504 nM | 822 nM
2 | Cn1cnc2ccc(Oc3c(Cl)ccc(NS(=O)(=O)N4CCCC4)c3C#N)cc2c1=O [US20240174621, Example AR-31] | 45.9 nM | 12000 nM | 1210 nM | 119 nM | 190 nM
